Results as given in PubChem BioAssay (NCI).
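Tested at 5 concentrations; 48 h exposure; 96-well plates; endpoints linearly interpolated, else capped at highest concentration. GI50 = concentration required for 50% inhibition of growth. TGI: concentration producing complete growth inhibition.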

Tests used:
Assay in all cases: NCI anticancer screen, dose series, 48 h; in the data active means GI50 below about 0.43 µM; inactive means the rest
[1] = tested on: ACHN renal
[2] = tested on: CAKI-1 renal
[3] = tested on: CCRF-CEM leukemia
[4] = tested on: DU-145 prostate
[5] = tested on: EKVX NSCLC
[6] = tested on: HCC-2998 colon
[7] = tested on: HCT-15 colon
[8] = tested on: HL-60(TB) leukemia
[9] = tested on: HOP-62 NSCLC
[10] = tested on: HOP-92 NSCLC
[11] = tested on: HS 578T breast
[12] = tested on: HT29 colon
[13] = tested on: IGROV1 ovarian
[14] = tested on: K-562 leukemia
[15] = tested on: KM12 colon
[16] = tested on: LOX IMVI melanoma
[17] = tested on: MALME-3M melanoma
[18] = tested on: MCF7 breast
[19] = tested on: MDA-MB-231 breast
[20] = tested on: MDA-MB-435
[21] = tested on: MOLT-4 leukemia
[22] = tested on: NCI-H23 lung
[23] = tested on: NCI-H460 lung
[24] = tested on: NCI-H522 lung
[25] = tested on: NCI/ADR-RES ovarian
[26] = tested on: OVCAR-3 ovarian
[27] = tested on: OVCAR-4 ovarian
[28] = tested on: OVCAR-5 ovarian
[29] = tested on: OVCAR-8 ovarian
[30] = tested on: PC-3 prostate
[31] = tested on: RPMI-8226 leukemia
[32] = tested on: RXF 393 renal
[33] = tested on: SF-268 CNS
[34] = tested on: SF-295 CNS
[35] = tested on: SF-539 CNS
[36] = tested on: SK-MEL-2 melanoma
[37] = tested on: SK-MEL-5 melanoma
[38] = tested on: SK-OV-3 ovarian
[39] = tested on: SN12C renal
[40] = tested on: SNB-19 CNS
[41] = tested on: SW-620 colon
[42] = tested on: T-47D breast
[43] = tested on: TK-10 renal
[44] = tested on: U251 CNS
[45] = tested on: UACC-257 melanoma
[46] = tested on: UACC-62 melanoma
[47] = tested on: UO-31 renal

COc1ccc2c3c([nH]c2c1)C(=O)c1nc(C)ccc1C3=O
1.65 µM: TGI [17]
2.2 µM: TGI [37]
7.05 µM: TGI [26]
4.07 µM: TGI [22]
inactive: GI50 [1] 2.55 µM | GI50 [2] 3.82 µM | GI50 [3] 3.69 µM | GI50 [4] 1.7 µM | GI50 [5] 2.68 µM | GI50 [6] 3.81 µM | GI50 [7] 1.94 µM | GI50 [8] 2.79 µM | GI50 [9] 3.5 µM | GI50 [10] 20.7 µM | GI50 [11] 13.6 µM | GI50 [12] 3.88 µM | GI50 [14] 3.31 µM | GI50 [15] 4.95 µM | GI50 [16] 2.24 µM | GI50 [18] 1.98 µM | GI50 [19] 3.33 µM | GI50 [20] 1.78 µM | GI50 [21] 2.63 µM | GI50 [22] 1.08 µM | GI50 [23] 1.02 µM | GI50 [24] 3.83 µM | GI50 [25] 2.75 µM | GI50 [26] 1.62 µM | GI50 [27] 2.06 µM | GI50 [28] 4.42 µM | GI50 [29] 3.35 µM | GI50 [30] 2 µM | GI50 [31] 2.91 µM | GI50 [32] 7.3 µM | GI50 [33] 7.8 µM | GI50 [34] 1.21 µM | GI50 [35] 3.75 µM | GI50 [36] 7.04 µM | GI50 [37] 0.792 µM | GI50 [38] > 100 µM | GI50 [39] 3.24 µM | GI50 [40] 2.61 µM | GI50 [41] 3.66 µM | GI50 [42] 2.65 µM | GI50 [43] > 100 µM | GI50 [44] 4.85 µM | GI50 [45] 1.48 µM | GI50 [46] 1.4 µM | GI50 [47] 1.03 µM
3.19 µM: TGI [20]
5.41 µM: TGI [45]
3.24 µM: TGI [4]
> 100 µM: TGI [1] | TGI [2] | TGI [3] | TGI [5] | TGI [6] | TGI [7] | TGI [8] | TGI [9] | TGI [10] | TGI [11] | TGI [12] | TGI [13] | TGI [14] | TGI [15] | TGI [16] | TGI [18] | TGI [19] | TGI [21] | TGI [24] | TGI [25] | TGI [27] | TGI [28] | TGI [29] | TGI [30] | TGI [31] | TGI [32] | TGI [33] | TGI [35] | TGI [36] | TGI [38] | TGI [39] | TGI [40] | TGI [41] | TGI [42] | TGI [43] | TGI [44] | TGI [47]
active: GI50 [13] 0.326 µM | GI50 [17] 0.331 µM
3.28 µM: TGI [23]
3.08 µM: TGI [46]
2.64 µM: TGI [34]
